# What was measured:
# [1] = mouse, in vivo; cited from earlier work
# [2] = Body weight and food consumption in the DMBA binding experiment; type: in vivo, mouse; settings: two weeks of feeding
# Experimental: Binding of [^3 H]DMBA to mouse skin DNA was determined as described in Pashko, L. L., and Schwartz, A. G. (1983), Effect of food restriction, dehydroepiandrosterone, or obesity on the binding of ^3 H-7,12-dimethylbenz(a)anthracene to mouse skin DNA, J. Gerontol., 38, 8-12. Values are mean±SD for 3 individual determinations, with pooled tissue from 2 mice used for each determination. DHEA or testosterone (400 ug in 0.2 ml acetone) was applied to the skin one hour before [^3 H]DMBA. The mean weight of the food restricted mice was 18.5±1.0 gm, n=6, of the ad libitum fed, 27.4±1.0 gm, n=6, of the ad libitum fed treated with DHEA, 28.2±0.9 gm, n=6, and of the ad libitum fed treated with testosterone, 28.3±0.9 gm, n=6, following two weeks of feeding. The average food consumed was, in gm/mouse/day, 2.2, 3.8, 3.8 and 4.0 for the food restricted, ad libitum fed, ad libitum fed plus DHEA, and ad libitum fed plus testosterone groups, respectively.
# [3] = topical, complete carcinogenesis model; cited from earlier work
# [4] = Anti-obesity action, body weight, male A/J mice; type: in vivo, mouse (male A/J); settings: 0.45% in diet
# Experimental: Male A/J (5 weeks old) mice were obtained from the
# Jackson Laboratory and were housed in polycarbonate cages (6
# mice/cage) in animal quarters maintained at 24 ± 1° C. with 12
# hours of light and 12 hours of darkness each day. One week
# after arrival, the mice were placed on a diet containing
# either DHEA, 8353, or without steroid. Animals were weighed
# [5] = tested on: mouse epidermal DNA (TPA stimulated 3H-thymidine incorporation); assay: TPA stimulation of 3H-thymidine incorporation in epidermis, topical steroid; type: in vivo, mouse (A/J); settings: for SPECIFIC ACTIVITY, TPA stimulated 3H-thymidine incorporation: no steroid 66, TPA alone 174
# Experimental: (§1) Tumor promoters, such as TPA, stimulate hyperplasia and DNA synthesis when applied to the skin, and it is believed that this stimulation is an important step in the enhancement of tumorigenesis.
# Incorporation of ^3 H-thymidine into A/J mouse epidermal DNA was determined as described in Pashko, L. L., Schwartz, A. G., Abou-Gharbia, M. and Swern, D. (1981), Inhibition of DNA synthesis in mouse epidermis and breast epithelium by dehydroepiandrosterone and related steroids, Carcinogenesis, 2, 717-721. Values are mean±SD for 3 separately treated mice in each group 20 hours after TPA application. DHEA or testosterone was added topically in 0.2 ml acetone one hour before TPA addition.
# [6] = tested on: mammalian glucose-6-phosphate dehydrogenase (G6PDH); settings: cited from earlier work
# [7] = cited from earlier work
# [8] = target: purified bovine adrenal G6PDH (Bos taurus, UniProt F1MMK2); assay: G6PDH inhibition test; type: biochemical; settings: individual determinations
# Chain of purified bovine adrenal G6PDH (F1MMK2 31-70): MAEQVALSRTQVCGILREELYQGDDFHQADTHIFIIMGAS
# Chain of purified bovine adrenal G6PDH (F1MMK2 101-575): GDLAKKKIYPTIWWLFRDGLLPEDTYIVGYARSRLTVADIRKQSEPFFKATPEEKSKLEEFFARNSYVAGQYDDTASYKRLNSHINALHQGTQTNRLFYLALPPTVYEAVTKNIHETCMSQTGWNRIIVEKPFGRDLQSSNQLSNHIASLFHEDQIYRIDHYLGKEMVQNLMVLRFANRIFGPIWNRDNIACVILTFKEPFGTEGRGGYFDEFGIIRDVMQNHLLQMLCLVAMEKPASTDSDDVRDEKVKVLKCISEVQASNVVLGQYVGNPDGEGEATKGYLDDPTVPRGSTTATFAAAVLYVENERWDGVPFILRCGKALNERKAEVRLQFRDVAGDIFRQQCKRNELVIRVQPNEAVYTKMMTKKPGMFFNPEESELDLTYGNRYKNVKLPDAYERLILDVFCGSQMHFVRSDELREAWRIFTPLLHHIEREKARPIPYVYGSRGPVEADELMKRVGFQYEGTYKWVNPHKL
# Source text: The compound listed below are screened as inhibitors of purified bovine adrenal G6PDH activity as one predictor of cancer preventive action. The assay for testing the inhibition of purified bovine adrenal G6PDH is according to the procedure by Oertell, G. W. and Rebelein, I. in Biochem. Biophys. Acta, 184, 459-460 (1969).
# [9] = tested on: mouse epidermis (TPA stimulated 3H-thymidine incorporation); assay: TPA stimulation of 3H-thymidine incorporation in mouse epidermis, oral steroid; type: in vivo, mouse (male ICR)
# Experimental: as §1
# Male ICR mice were orally intubated with steroid suspended in sesame oil (0.5 ml/mouse) at the indicated dose. Mice not receiving steroid were given sesame oil alone. One hour later mice received topical application of TPA and 20 hours later the rate of ^3 H-thymidine incorporation into the epidermis was determined as described in Pashko, L. L., Schwartz, A. G., Abou-Gharbia, M., and Swern, D. (1981), Inhibition of DNA synthesis in mouse epidermis and breast epithelium by dehydroepiandrosterone and related steroids, Carcinogenesis, 2,-717-721.
# Experimental conditions are the same as in Table 3.
# [10] = Anti-weight effect in mice, general statements; type: in vivo, mouse
# Source text: (Table 9 vs Table 5 and Table 6). […] Thus the cancer preventive the cancer preventive effect of DHEA may result indirectly from its anti-weight action rather than from a direct effect of DHEA or target cells.
# [11] = tested on: human lymphocytes (Epstein-Barr virus-induced transformation); settings: cited from earlier work
# liver catalase = assay: Liver catalase activity after three weeks of diet treatment; type: in vivo, mouse (female Balb/c)
# Experimental: Female Balb/c mice were housed in polycarbonate cages (6/mice/cage) in animal quarters maintained at 24°±1° C. with 12 hours of light and 12 hours of dark each day. The mice were placed on a diet containing either DHEA, 8354, A, B clofibrate or with no addition. Three weeks later the mice were killed, the livers were perfused with cold saline, weighed, and 5% liver homogenates were prepared for the determination of catalase activity by the spectrophotometric method of Luck (H. Luck, in Method in Enzyme Analysis, H. U. Bergmeyer, Ed. (Verlag Chemie, Weinheim/Bergstrasse, Germany, 1965)). Total protein was measured by the method of Lowry, et al. (O. H. Lowry, N. J. Rosebrough, A. L. Farr, R. J. Randall, J. Biol. Chem., 193, 265 (1951)).
# [12] = tested on: cultured rat kidney epithelial cell line; settings: cited from earlier work
# [13] = long term treatment, NZB mice; cited from earlier work
# [14] = mouse, in vivo; cited from earlier work; remark: listed apart in the source
# [15] = daily approximately 400 mg/kg, long-term; cited from earlier work
compound,measurement,setting,value
"C[C@]12CC[C@H](O)CC1=CC[C@@H]1[C@@H]2CC[C@]2(C)C(=O)CC[C@@H]12 [DHEA, Dehydroepiandrosterone]",hypoglycemic effect,[1],marked hypoglycemic effect
same,mean body weight,"[2]; topical 400 ug, ad libitum fed 27.4±1.0",28.2±0.9 gm
same,average food consumed,[2]; ad libitum fed 3.8,3.8 gm/mouse/day
same,DMBA produced papillomas and carcinomas,[3],inhibits DMBA produced papillomas and carcinomas
same,mean weekly weight ± S.D.,"[4]; week 0, control 23 ± 1.5",23.0 ± 1.5 grams
same,mean weekly weight ± S.D.,"[4]; week 1, control 25.0 ± 1.6",22.8 ± 1.5 grams
same,mean weekly weight ± S.D.,"[4]; week 2, control 27.0 ± 1.6",19.0 ± 1.5 grams
same,mean weekly weight ± S.D.,"[4]; week 3, control 27.3 ± 1.6",21.5 ± 1.1 grams
same,mean weekly weight ± S.D.,"[4]; week 4, control 27.5 ± 1.9",21.4 ± 1.2 grams
same,"SPECIFIC ACTIVITY, TPA stimulated 3H-thymidine incorporation",[5]; topical 100 ug,52 ± 5.8 cpm/ug DNA
same,"SPECIFIC ACTIVITY, TPA stimulated 3H-thymidine incorporation",[5]; topical 400 ug,22 ± 6.5 cpm/ug DNA
same,effect on TPA stimulation of 3H-thymidine incorporation,"[5]; topical, in words (Table 5)",abolishes this stimulation
same,inhibition of mammalian G6PDH,[6],potent non-competitive inhibitor
same,enzyme-positive premalignant foci in the liver,"[7]; 0.6%, 20-22 weeks, after 4 injections of carcinogen",inhibited the formation of enzyme-positive premalignant foci in the liver
same,"liver basophilic lesions, enzyme-negative",[7]; after carcinogen,promoted the development of liver basophilic lesions which were enzyme-negative
same,Percent Inhibition of G6PDH,[8]; 10^-5 M,57%
same,inhibition at 10 µM,"[8]; 10^-5 M, read-out: Percent Inhibition of G6PDH",53%
same,inhibition at 1 µM,"[8]; 10^-6 M, read-out: Percent Inhibition of G6PDH",17%
same,"SPECIFIC ACTIVITY, TPA stimulated 3H-thymidine incorporation","[9]; Table 9, oral 400 mg/kg, no steroid 55.1, TPA alone 118",50.9 ± 3.2 cpm/ug DNA
same,effect on TPA stimulation in 3H-thymidine incorporation,"[9]; oral, mice, doses well below 400 mg/kg, comparable to food restriction",inactive
same,effect on TPA stimulation of 3H-thymidine incorporation,"[9]; single administration, 400 mg/kg, mice, compared with food restriction or topical 400 ug DHEA",does not inhibit the TPA stimulation in epidermal ^3 H-thymidine incorporation to a degree comparable
same,anti-weight effect,"[10]; approximately 400 mg/kg daily, repeatedly over a few weeks",produces an anti-weight effect
same,effect on weight: cause of the anti-weight effect,"[10]; four weeks, 400 mg/kg",due to both a reduction in food intake and to a decrease in the efficiency of food utilization
same,inhibition of Epstein-Barr virus-induced transformation,[11],inhibitors of Epstein-Barr virus-induced transformation of human lymphocytes
same,CATALASE ACTIVITY,"liver catalase; 0.25% of diet, control 31.1 ± 6.7, DHEA p < 0.05, clofibrate p < 0.001 vs control",97.8 ± 24 Units per mg protein
same,increase in liver catalase specific activity,"liver catalase; 0.25%, vs control",threefold
same,"catalase activity, in words","liver catalase; mice, 0.25% of diet",stimulated catalase activity
same,capacity of TPA to stimulate 3H-thymidine incorporation,[12],antagonizes
same,rate of development of the autoimmune anemia,[13],significantly inhibits the rate of development of the autoimmune anemia
same,anti-hypercholesterolemic effect,[14],anti-hypercholesterolemic effect
same,"development of breast, lung, and colon tumors",[15],"inhibit the development of breast, lung, and colon tumors"
